Experimental data published in US20190041383A1, “METHOD FOR PREPARING SENESCENT MELANOCYTES, CELLS PREPARED BY METHOD, AND METHOD FOR SCREENING FOR SENESCENCE-ALLEVIATING MATERIAL BY USING CELLS” (AMOREPACIFIC CORPORATION, priority 2015, published 2019).

How the values were obtained:
Type in all cases: cell-based, human
[1] = system: melanocytes irradiated with UVB at 20 mJ/cm^2 two times (senescent melanocytes); assay: β-galactosidase activity in senescent melanocytes after treatment with whitening material; conditions: 30 μM, medium changed every 3 days (4 times) from 48 h after UVB, read after two weeks, vs vehicle (DMSO) control; p<0.05 (FIG. 5a)
Method: Human primary melanocytes (Life Technologies, CA, USA) were cultured in a 5% CO2 incubator at room temperature by using M-254 medium (Gibco BRL, NY, USA) supplemented with human melanocyte growth supplement (HMGS) (Gibco BRL, NY, USA), placed on a 100 mm culture dish so that the number of cells was 2×10^5, allowed to attach to the dish wall for the night, and irradiated with UVB at a strength of 11 mJ/cm^2, 20 mJ/cm^2, and 30 mJ/cm^2 two times at an interval of 24 hours.
After UVB irradiation under the conditions of Example 1, β-galactosidase activity, which is a representative senescence index of cell, has been measured and it has been confirmed that the activity increased in proportion to the strength of UVB irradiated (FIG. 3a).
The cells determined in the most proper senescent state through the above-described Examples, namely, the cells prepared by irradiating the melanocytes with UVB at a strength of 20 mJ/cm^2 two times at an interval of 24 hours were cultured from the 48th hour after the UV ray irradiation in a medium containing Material A (melasolv, 30 μM) of a representative whitening material while changing the medium at an interval of 3 days (4 times in total). After two weeks, the β-galactosidase activity and the melanin content were compared to those of a control group (vehicle (DMSO) treated) (FIG. 5). […]

[2] = system: melanocytes irradiated with UVB at 20 mJ/cm^2 two times (senescent pigmentation model); assay: melanin content in senescent melanocytes after treatment with whitening material; conditions: 30 μM, medium changed every 3 days (4 times) from 48 h after UVB, read after two weeks, vs vehicle (DMSO) control; p<0.05 (FIG. 5b)
Method: Human primary melanocytes (Life Technologies, CA, USA) were cultured in a 5% CO2 incubator at room temperature by using M-254 medium (Gibco BRL, NY, USA) supplemented with human melanocyte growth supplement (HMGS) (Gibco BRL, NY, USA), placed on a 100 mm culture dish so that the number of cells was 2×10^5, allowed to attach to the dish wall for the night, and irradiated with UVB at a strength of 11 mJ/cm^2, 20 mJ/cm^2, and 30 mJ/cm^2 two times at an interval of 24 hours. The melanocytes were irradiated with UVB at a strength of 11 mJ/cm^2, 20 mJ/cm^2, and 30 mJ/cm^2, respectively, two times, cultured for 2 weeks, detached from the culture dish and counted, and the same number of cells were collected in a microtube, disrupted by adding RIPA assay buffer (Millipore, 20-188) thereto, and subjected to the centrifugation at 13,500 rpm for 30 minutes to obtain a precipitate. The precipitate was dissolved in a 1N sodium hydroxide (NaOH) solution, and the colors were compared to one another (FIG. 4a), and the absorbance was measured at 450 nm to compare the content of melanin (FIG. 4b). […]

p16 and p21 = p16 and p21 mRNA expression (Q-PCR) in senescent melanocytes after treatment with whitening material; conditions: treated for 2 weeks from 48 h after final UVB irradiation, four times at an interval of 3 days; p<0.05 / p<0.01 (FIG. 6)
Method: Human primary melanocytes (Life Technologies, CA, USA) were cultured in a 5% CO2 incubator at room temperature by using M-254 medium (Gibco BRL, NY, USA) supplemented with human melanocyte growth supplement (HMGS) (Gibco BRL, NY, USA), placed on a 100 mm culture dish so that the number of cells was 2×10^5, allowed to attach to the dish wall for the night, and irradiated with UVB at a strength of 11 mJ/cm^2, 20 mJ/cm^2, and 30 mJ/cm^2 two times at an interval of 24 hours. cDNA was prepared by obtaining RNA from cells 2 weeks after being irradiated with UVB at a strength of 20 mJ/cm^2 two times at an interval of 24 hours, and a change in mRNA level was measured by Q-PCR (Applied biosystems, 7500 Fast) by using p16 and p21 specific primers. As the Q-PCR experiment, a cycle at 95° C. for 15 seconds and at 60° C. for 60 seconds was repeatedly conducted 40 times in total, and the relative value of an increase in gene expression as compared to that of a control group was measured.

β-galactosidase activity [1]: decreases
Structure (SMILES): COc1cc(/C=C/C(=O)Oc2cc(C)ccc2C(C)C)cc(OC)c1OC [Material A, melasolv]
melanin content [2]: significantly decreases to the level of that of the control group
increased gene expression (p16 and p21) (p16 and p21): significantly inhibited
